Earlier results on one compound are cited in paper PMC10517971, “An inverse agonist of orphan receptor GPR61 acts by a G protein-competitive allosteric mechanism” (Nature Communications, 2023).

Series [1] relates to GPR61. Details: method as in PMID 14607265, PMID 31352450. The settings on record: cited from earlier work.
The conditions of series [2]: cited from earlier work.

On to `CCCCCCCCCOc1ccc2[nH]cc(CCN)c2c1` [Compound 5-NOT, 5-nonyloxy-tryptamine], for which, in series [1], the “potency as GPR61 inverse agonist” value is reported as “low potency” and the selectivity entry is reported as “lack of selectivity”. Also, the solubility result in series [2] was “low solubility”.
